Key:
broiler chickens = assay: Growth performance trial with broiler chickens (day 8 to day 29); assay type: in vivo, chickens (ROSS PM3); settings: for Feed conversion (g feed/g gain) / Feed conversion relative to control (control 100.0) / Feed intake (g/bird) / Feed intake relative to control (control 100.0) / Weight gain (g/bird) / Weight gain relative to control (control 100.0): Day 8-29
Experimental: A growth performance trial with broiler chickens was performed from day 8 to day 29. The chickens were housed in wire-floored battery cages. From day-old until day 8, the chickens were fed a pre-experimental diet based on wheat, maize and soybean meal. In the experimental period (day 8 to 29) the chickens received diets based on wheat, rye and soybean meal (composition see Table 1). Groups of birds were weighed on days 8, 15, 22 and 29. The feed consumption for the intermediate periods was determined and body weight gain and feed conversion ratio were calculated.
Beside an un-supplemented control treatment and a positive control containing 10 mg of the antibiotic Avilamycin per kg feed, benzoic acid (VevoVitall) was included at 500 mg per kg feed. In addition, per kg feed, combinations of 250 mg benzoic acid and 50 mg of the composition comprising thymol, eugenol and piperine (herein abbreviated by TEP) as well as either 500 mg benzoic acid and 25 mg TEP or 500 mg benzoic acid and 50 mg TEP were tested, respectively.

pig = settings: cited from earlier work
poultry = settings: cited from earlier work

Row | SMILES | Improvement in weight gain compared to the control (broiler chickens; Avilamycin 10 mg per kg feed) | Improvement of feed conversion (FCR) compared to the negative control (broiler chickens; Avilamycin 10 mg per kg feed) | Feed conversion (g feed/g gain) (broiler chickens; dose 10 mg/kg feed) | Feed conversion relative to control (control 100.0) (broiler chickens; dose 10 mg/kg feed) | Feed intake (g/bird) (broiler chickens; dose 10 mg/kg feed) | Feed intake relative to control (control 100.0) (broiler chickens; dose 10 mg/kg feed) | Weight gain (g/bird) (broiler chickens; dose 10 mg/kg feed) | Weight gain relative to control (control 100.0) (broiler chickens; dose 10 mg/kg feed) | Feed conversion (g feed/g gain) (broiler chickens; dose 500 mg/kg feed) | Feed conversion relative to control (control 100.0) (broiler chickens; dose 500 mg/kg feed) | Feed intake (g/bird) (broiler chickens; dose 500 mg/kg feed) | Feed intake relative to control (control 100.0) (broiler chickens; dose 500 mg/kg feed) | Weight gain (g/bird) (broiler chickens; dose 500 mg/kg feed) | Weight gain relative to control (control 100.0) (broiler chickens; dose 500 mg/kg feed) | Improvement in weight gain compared to the control (broiler chickens; VevoVitall alone at 500 mg/kg) | Dosage in feed at which undesired adverse effects occur (pig) | Dosage in feed at which undesired adverse effects occur (poultry)
1 | COC[C@H]1O[C@@H](OC2OC[C@@H]3O[C@]4(O[C@H]3[C@H]2OC(=O)C(C)C)O[C@H](C)[C@@](O)(C(C)=O)[C@@H]2OCO[C@H]24)[C@@H](OC)[C@@H](O)[C@@H]1O[C@@H]1O[C@H](C)[C@H](OC)[C@H](O[C@H]2C[C@@]3(C)OC4(C[C@@H](O)[C@H](O[C@H]5C[C@@H](O)[C@H](OC(=O)c6c(C)c(Cl)c(O)c(Cl)c6OC)[C@@H](C)O5)[C@@H](C)O4)O[C@@H]3[C@@H](C)O2)[C@H]1O (some centres unmarked) [Avilamycin] | 8.7% | 4.3% | 2.008 ± 0.052 g feed/g gain | 95.7 | 2533 ± 199.6 g/bird | 104.1 | 1261 ± 76.8 g/bird | 108.7 | – | – | – | – | – | – | – | – | –
2 | O=C(O)c1ccccc1 [VevoVitall, benzoic acid] | – | – | – | – | – | – | – | – | 2.117 ± 0.093 g feed/g gain | 100.8 | 2538 ± 309.6 g/bird | 104.3 | 1196 ± 103.0 g/bird | 103.1 | 3% | > 10000 mg/kg pig feed | > 5000 mg/kg poultry feed

Reference: patent US8980335B2, “Use of organic acids and essential oils in animal feeding” (DSM IP Assets B.V., priority 2007, dated 2015)
